The record followed here is patent publication US12570687B2, “Triterpenoid compounds, pharmaceutical compositions thereof, and their use for treating a nuclear receptor subfamily 4 group a member 1-mediated disease” (NUCMITO PHARMACEUTICALS COMPANY LIMITED, priority 2019, dated 2026).

Common to all, as to assay type: cell-based
In assay [1] the test system is HeLa (ovarian cancer). Description: MTT antiproliferative assay, HeLa. The following applies: Homo sapiens, 48 or 72 h, read-out: inhibition of cell growth, HELA. The protocol: (§1) The antiproliferative activity of a test compound was determined in cell lines: MDA-MB-231 (breast cancer), HepG2 (liver cancer), SW620 (colon cancer), A375 (malignant melanoma), A431 (epidermoid carcinoma), A549 (lung adenocarcinoma), and HeLa ([…]). MDA-MB-231, HepG2, SW480, SW620, A375, and A431 cells were cultured in Dulbecco's modified Eagle's medium (DMEM) containing 10% fetal bovine serum (FBS). HeLa cells were cultured in MEM/EBSS (MEM) containing 10% FBS. A549 cells were maintained in Kaighn's modification of Ham's F-12 medium containing 10% FBS. The colorimetric MTT (3-(4,5-dimethylthiazol-2-yl)-2,5-diphenyltetrazolium bromide) assay was used to measure the cell viability of different cells following treatment with the test compound.
(§2) Briefly cells were seeded in a 96 well plate at a density of 2,000-5,000 cells/well. Following attachment, the cells were treated with the test compound in media at various concentrations ranging from 0.137 to 100 μM or at a single concentration of 10 μM. After the cells were incubated at 37° C. for 48 or 72 h, MTT (20 μL, 5 mg/mL in PBS) was added to each well and the cells were incubated for another 4 h at 37° C. The supernatant was removed carefully and 150 μL of DMSO was added to each well to dissolve the MTT formazan crystals. The plate was shaken for 15-20 min and the absorbance value of each well was determined using a multi-well plate reader at 490 nm. The wells treated with DMSO were taken as a vehicle control. Data were also obtained similarly for all the replicates and the percentage viability was determined with respect to the DMSO-treated cells. The results are summarized in Table 1 below, wherein A represents no less than 80% inhibition of cell growth at 10 μM; B represents no less than 50% but less than 80% inhibition of cell growth at 10 μM; C represents no less than 30% but less than 50% inhibition of cell growth at 10 μM; and D represents less than 30% inhibition of cell growth at 10 μM.

Assay [2] has as its system HepG2 (liver cancer). As to the kind of experiment: MTT antiproliferative assay, HepG2. The following applies: Homo sapiens, HepG2, 10 μM, 48 or 72 h, read-out: inhibition of cell growth, HepG2. The protocol:
as §1, §2
(In general: Formazan colour is commonly taken as a measure of viable cells.)

In assay [3] the test system is MDA-MB-231 (breast cancer). Description: MTT antiproliferative assay, MDA-MB-231. The following applies: Homo sapiens, MDA-MB-231, 10 μM, 48 or 72 h, read-out: inhibition of cell growth, MDA-MB-231. On the procedure:
as §1, §2

For assay [4], the system named is SW620 (colon cancer). Description: MTT antiproliferative assay, SW620. The following applies: Homo sapiens, SW-620, SW620, 10 μM, 48 or 72 h, read-out: inhibition of cell growth, SW620. The protocol:
as §1, §2

Assay [5] concerns A375 (malignant melanoma). As to the kind of experiment: MTT antiproliferative assay, A375. The following applies: Homo sapiens, A-375, A375, 10 μM, 48 or 72 h, read-out: inhibition of cell growth, A375. The protocol:
as §1, §2

The test system of assay [6] is A431 (epidermoid carcinoma). As to the kind of experiment: MTT antiproliferative assay, A431. The following applies: Homo sapiens, A-431, A431, 10 μM, 48 or 72 h, read-out: inhibition of cell growth, A431. On the procedure: as §1, §2
Assay [7] has as its system A549 (lung adenocarcinoma). Description: MTT antiproliferative assay, A549. To be noted: Homo sapiens, A549, 10 μM, 48 or 72 h, read-out: inhibition of cell growth, A549. On the procedure: as §1, §2

Each structure is given as a SMILES string.

For `CO[C@]1(C)C(=O)C(=O)C=C2C1=CC=C1[C@@]2(C)CC[C@@]2(C)[C@@H]3C[C@](C)(C(=O)N(C)C)CC[C@]3(C)CC[C@]12C` [Compound A13, (2R,4aS,6aS,9S,12bR,14aS,14bR)-9-methoxy-N,N,2,4a,6a,9,12b,14a-octamethyl-10,11-dioxo-1,2,3,4,4a,5,6,6a,9,10,11,12b,13,14,14a,14b-hexadecahydropicene-2-carboxamide], the inhibition (as a rule, the relative decrease from the control value, in per cent) at 10 µM was at least 80% in assay [1]; at least 80% in assay [2]; at least 80% in assay [3]; at least 80% in assay [4]; 30 to 50% in assay [5]; at least 80% in assay [6]. Besides, in assay [7], the inhibition at 10 µM was at least 80%.

For `CO[C@]1(C)C(=O)C(=O)C=C2C1=CC=C1[C@@]2(C)CC[C@@]2(C)[C@@H]3C[C@](C)(CO)CC[C@]3(C)CC[C@]12C` [Compound A14, (4S,6bS,8aS,11R,12aR,12bS,14aR)-11-(hydroxymethyl)-4-methoxy-4,6b,8a,11,12b,14a-hexamethyl-4,6b,7,8,8a,9,10,11,12,12a,12b,13,14,14a-tetradecahydropicene-2,3-dione], the inhibition at 10 µM in assay [1] was 30 to 50%; in assay [2], below 30%; in assay [3] it was below 30%; in assay [4], below 30%; in assay [5] it was below 30%; in assay [6], below 30%. Also, the inhibition at 10 µM in assay [7] is below 30%.

For the compound `CO[C@@]1(C)C2=CC=C3[C@@](C)(CC[C@@]4(C)[C@@H]5C[C@](C)(C(=O)O)CC[C@]5(C)CC[C@]34C)C2=CC(=O)[C@@H]1O` [Compound A15, (2R,4aS,6aS,9S,10R,12bR,14aS,14bR)-10-hydroxy-9-methoxy-2,4a,6a,9,12b,14a-hexamethyl-11-oxo-1,2,3,4,4a,5,6,6a,9,10,11,12b,13,14,14a,14b-hexadecahydropicene-2-carboxylic acid], the inhibition at 10 µM in assay [1] is 50 to 80%; in assay [2] it was 30 to 50%; in assay [3], at least 80%; in assay [4], 30 to 50%; in assay [5], 50 to 80%; in assay [6], 50 to 80%. Also, the inhibition at 10 µM in assay [7] is below 30%.

On to `CO[C@@]1(C)C2=CC=C3[C@@](C)(CC[C@@]4(C)[C@@H]5C[C@](C)(C(=O)OCc6ccccc6)CC[C@]5(C)CC[C@]34C)C2=CC(=O)[C@@H]1O` [Compound A16, benzyl (2R,4aS,6aS,9S,10R,12bR,14aS,14bR)-10-hydroxy-9-methoxy-2,4a,6a,9,12b,14a-hexamethyl-11-oxo-1,2,3,4,4a,5,6,6a,9,10,11,12b,13,14,14a,14b-hexadecahydropicene-2-carboxylate], for which the inhibition at 10 µM is at least 80% in assay [1]; at least 80% in assay [2]; at least 80% in assay [3]; at least 80% in assay [4]; 50 to 80% in assay [5]; at least 80% in assay [6]. The inhibition at 10 µM in assay [7] was at least 80%.

As to `CNC(=O)[C@]1(C)CC[C@]2(C)CC[C@]3(C)C4=CC=C5C(=CC(=O)[C@H](O)[C@@]5(C)OC)[C@]4(C)CC[C@@]3(C)[C@@H]2C1` [Compound A17, (2R,4aS,6aS,9S,10R,12bR,14aS,14bR)-10-hydroxy-9-methoxy-N,2,4a,6a,9,12b,14a-heptamethyl-11-oxo-1,2,3,4,4a,5,6,6a,9,10,11,12b,13,14,14a,14b-hexadecahydropicene-2-carboxamide], the inhibition at 10 µM in assay [1] is 50 to 80%; in assay [2] it was at least 80%; in assay [3], at least 80%; in assay [4] it was at least 80%; in assay [5], 50 to 80%; in assay [6], at least 80%. The inhibition at 10 µM in assay [7] is 30 to 50%.

For `CO[C@@]1(C)C2=CC=C3[C@@](C)(CC[C@@]4(C)[C@@H]5C[C@](C)(CO)CC[C@]5(C)CC[C@]34C)C2=CC(=O)[C@@H]1O` [Compound A18, (3R,4S,6bS,8aS,11R,12aR,12bS,14aR)-3-hydroxy-11-(hydroxymethyl)-4-methoxy-4,6b,8a,11,12b,14a-hexamethyl-2,3,4,6b,7,8,8a,9,10,11,12,12a,12b,13,14,14a-hexadecahydropicen-2-one], the inhibition at 10 µM was at least 80% in assay [1]; at least 80% in assay [2]; at least 80% in assay [3]; at least 80% in assay [4]; 50 to 80% in assay [5]; at least 80% in assay [6]. Moreover, the inhibition at 10 µM in assay [7] lay within 30 to 50%.

Turning to `CO[C@@]1(C)C2=CC=C3[C@@](C)(CC[C@@]4(C)[C@@H]5C[C@](C)(C=O)CC[C@]5(C)CC[C@]34C)C2=CC(=O)[C@@H]1O` [Compound A19, (2R,4aS,6aS,9S,10R,12bR,14aS,14bR)-10-hydroxy-9-methoxy-2,4a,6a,9,12b,14a-hexamethyl-11-oxo-1,2,3,4,4a,5,6,6a,9,10,11,12b,13,14,14a,14b-hexadecahydropicene-2-carbaldehyde], the inhibition at 10 µM is at least 80% in assay [1]; 50 to 80% in assay [2]; 50 to 80% in assay [3]; 50 to 80% in assay [4]; 30 to 50% in assay [5]; at least 80% in assay [6]. In addition, the inhibition at 10 µM in assay [7] was in the range of 50 to 80%.

Take `COC(=O)[C@]1(C)CC[C@]2(C)CC[C@]3(C)C4=CC=C5C(=CC(=O)[C@H](O)[C@@]5(C)OC)[C@]4(C)CC[C@@]3(C)[C@@H]2C1` [Compound A20, methyl (2R,4aS,6aS,9S,10R,12bR,14aS,14bR)-10-hydroxy-9-methoxy-2,4a,6a,9,12b,14a-hexamethyl-11-oxo-1,2,3,4,4a,5,6,6a,9,10,11,12b,13,14,14a,14b-hexadecahydropicene-2-carboxylate]: the inhibition at 10 µM in assay [1] was at least 80%; in assay [2], at least 80%; in assay [3], at least 80%; in assay [4], at least 80%; in assay [5], 50 to 80%; in assay [6], at least 80%. In assay [7], the inhibition at 10 µM was at least 80%.

Take `CO[C@@]1(C)C2CCC3[C@@](C)(CC[C@@]4(C)[C@@H]5C[C@](C)(C(=O)O)CC[C@]5(C)CC[C@]34C)C2=CC(=O)[C@@H]1O` (stereo partly drawn) [Compound A21, (2R,4aS,6aR,9S,10R,12bR,14aS,14bR)-10-hydroxy-9-methoxy-2,4a,6a,9,12b,14a-hexamethyl-11-oxo-1,2,3,4,4a,5,6,6a,6b,7,8,8a,9,10,11,12b,13,14,14a,14b-icosahydropicene-2-carboxylic acid]: the inhibition at 10 µM in assay [1], in assay [2], in assay [3], in assay [4], in assay [5] and in assay [6] was below 30% throughout. The inhibition at 10 µM in assay [7] was below 30%.
